Measured values from PubChem BioAssay (NCI).
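Results reflect a 48-hour exposure of cells in 96-well plates to compound at five concentrations. TGI: total growth inhibition.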

Key:
Assay in all cases: NCI tumour cell line growth inhibition, 48 h
[1] = system: SW-620 colon
[2] = system: OVCAR-3 ovarian
[3] = system: KM20L2 colon
[4] = system: M19-MEL melanoma
[5] = system: NCI-H460 lung
[6] = system: SK-MEL-5 melanoma
[7] = system: SNB-75 CNS
[8] = system: RXF 393 renal
[9] = system: SK-MEL-28 melanoma
[10] = system: UACC-62 melanoma
[11] = system: TK-10 renal
[12] = system: SNB-19 CNS
[13] = system: DMS 273 small cell lung
[14] = system: CCRF-CEM leukemia
[15] = system: SF-295 CNS
[16] = system: UACC-257 melanoma
[17] = system: EKVX NSCLC
[18] = system: K-562 leukemia
[19] = system: NCI-H23 lung
[20] = system: T-47D breast
[21] = system: M14 melanoma
[22] = system: OVCAR-4 ovarian
[23] = system: SK-MEL-2 melanoma
[24] = system: SK-OV-3 ovarian
[25] = system: LOX IMVI melanoma
[26] = system: DLD-1 colon
[27] = system: BT-549 breast
[28] = system: HL-60(TB) leukemia
[29] = system: A549 NSCLC
[30] = system: RPMI-8226 leukemia
[31] = system: HOP-92 NSCLC
[32] = system: OVCAR-8 ovarian
[33] = system: PC-3 prostate
[34] = system: IGROV1 ovarian
[35] = system: HCC-2998 colon
[36] = system: SNB-78 CNS
[37] = system: ACHN renal
[38] = system: XF 498 CNS
[39] = system: HOP-18 NSCLC
[40] = system: NCI-H226 lung
[41] = system: MDA-MB-231 breast
[42] = system: COLO 205 colon
[43] = system: HT29 colon
[44] = system: NCI-H522 lung
[45] = system: HS 578T breast
[46] = system: HCT-116 colon
[47] = system: MOLT-4 leukemia
[48] = system: A498 renal
[49] = system: DMS 114 small cell lung
[50] = system: SF-539 CNS
[51] = system: UO-31 renal
[52] = system: 786-0 renal
[53] = system: LXFL 529 NSCLC
[54] = system: SN12C renal
[55] = system: MCF7 breast
[56] = system: MALME-3M melanoma
[57] = system: SF-268 CNS
[58] = system: HCT-15 colon
[59] = system: DU-145 prostate
[60] = system: HOP-62 NSCLC
[61] = system: RXF-631 renal
[62] = system: KM12 colon
[63] = system: MDA-N
[64] = system: OVCAR-5 ovarian
[65] = system: U251 CNS

## ON(Cc1ccccc1)C(=S)c1ccccc1
[1]
  TGI: > 100 µM
[2]
  TGI: > 67 µM
[3]
  TGI: > 100 µM
[4]
  TGI: > 100 µM
[5]
  TGI: 22.3 µM
[6]
  TGI: > 100 µM
[7]
  TGI: > 100 µM
[8]
  TGI: 85.3 µM
[9]
  TGI: > 100 µM
[10]
  TGI: 25.4 µM
[11]
  TGI: > 100 µM
[12]
  TGI: > 100 µM
[13]
  TGI: > 76.5 µM
[14]
  TGI: > 27 µM
[15]
  TGI: > 45.3 µM
[16]
  TGI: 39.4 µM
[17]
  TGI: > 100 µM
[18]
  TGI: > 100 µM
[19]
  TGI: 47.1 µM
[20]
  TGI: > 100 µM
[21]
  TGI: 55.6 µM
[22]
  TGI: > 100 µM
[23]
  TGI: > 100 µM
[24]
  TGI: > 100 µM
[25]
  TGI: > 46.9 µM
[26]
  TGI: > 100 µM
[27]
  TGI: > 100 µM
[28]
  TGI: 7.75 µM
[29]
  TGI: > 100 µM
[30]
  TGI: > 100 µM
[31]
  TGI: > 100 µM
[32]
  TGI: > 69.8 µM
[33]
  TGI: > 100 µM
[34]
  TGI: > 100 µM
[35]
  TGI: 98.1 µM
[36]
  TGI: > 100 µM
[37]
  TGI: 62.1 µM
[38]
  TGI: > 100 µM
[39]
  TGI: > 100 µM
[40]
  TGI: 93 µM
[41]
  TGI: > 100 µM
[42]
  TGI: > 93.8 µM
[43]
  TGI: > 100 µM
[44]
  TGI: 28 µM
[45]
  TGI: > 100 µM
[46]
  TGI: 51.6 µM
[47]
  TGI: > 41 µM
[48]
  TGI: > 100 µM
[49]
  TGI: 9.55 µM
[50]
  TGI: 44.4 µM
[51]
  TGI: 37.9 µM
[52]
  TGI: > 100 µM
[53]
  TGI: > 100 µM
[54]
  TGI: > 100 µM
[55]
  TGI: > 100 µM
[56]
  TGI: > 100 µM
[57]
  TGI: > 100 µM
[58]
  TGI: > 100 µM
[59]
  TGI: > 100 µM
[60]
  TGI: 42.9 µM
[61]
  TGI: > 100 µM
[62]
  TGI: > 63.6 µM
[63]
  TGI: > 100 µM
[64]
  TGI: > 100 µM
[65]
  TGI: 61 µM
